Assay results taken from patent EP0188887A1, “Tertiary amine compounds” (IMPERIAL CHEMICAL INDUSTRIES PLC, priority 1985, dated 1986).

Columns and labels:
Type in all cases: in vivo
[1] = test system: CERCOSPORA ARACHIDICOLA (PEANUT); test: Foliar fungal disease test on plants (foliar spray plus root drench), Cercospora arachidicola on peanut; conditions: 100 ppm active ingredient sprayed on foliage, root drench approximately 40 ppm a.i./dry soil; applied one or two days before inoculation
Experimental: (§1) The compounds were tested against a variety of foliar fungal diseases of plants. The technique employed was as follows. The plants were grown in John Innes Potting Compost (No 1 or 2) in 4 cm diameter minipots. The test compounds were formulated either by bead milling with aqueous Dispersol T or as a solution in acetone or acetone/ethanol which was diluted to the required concentration immediately before use. For the foliage diseases, the formulations (100 ppm active ingredient) were sprayed on to the foliage and applied to the roots of the plants in the soil. The sprays were applied to maximum retention and the root drenches to a final concentration equivalent to approximately 40 ppm a.i./dry soil. Tween 20, to give a final concentration of 0.05%, was added when the sprays were applied to cereals. For most of the tests the compound was applied to the soil (roots) and to the foliage (by spraying) one or two days before the plant was inoculated with the disease. An exception was the test on Erysiphe graminis in which the plants were inoculated 24 hours before treatment. Foliar pathogens were applied by spray as spore suspensions onto the leaves of test plants. After inoculation, the plants were put into an appropriate environment to allow infection to proceed and then incubated until the disease was ready for assessment. The period between inoculation and assessment varied from four to fourteen days according to the disease and environment. The disease control was recorded by the following grading:- • 4 = no disease • 3 = trace - 5% of disease on untreated plants • 2 = 6-25% of disease on untreated plants • 1 = 26-59% of disease on untreated plants • 0 = 60-100% of disease on untreated plants

[2] = test system: PUCCINIA RECONDITA (WHEAT); test: Foliar fungal disease test on plants (foliar spray plus root drench), Puccinia recondita on wheat; conditions: 100 ppm active ingredient sprayed on foliage, root drench approximately 40 ppm a.i./dry soil; applied one or two days before inoculation
Experimental: as §1

[3] = test system: VENTURIA INAEQUALIS (APPLE); test: Foliar fungal disease test on plants (foliar spray plus root drench), Venturia inaequalis on apple; conditions: 100 ppm active ingredient sprayed on foliage, root drench approximately 40 ppm a.i./dry soil; applied one or two days before inoculation
Experimental: as §1

[4] = test system: ERYSIPHE GRAMINIS (BARLEY); test: Foliar fungal disease test on plants (foliar spray plus root drench), Erysiphe graminis on barley; conditions: 100 ppm active ingredient sprayed on foliage, root drench approximately 40 ppm a.i./dry soil; plants inoculated 24 hours before treatment
Experimental: as §1

Compound | disease control grading, CERCOSPORA ARACHIDICOLA (PEANUT) [1] | disease control grading, PUCCINIA RECONDITA (WHEAT) [2] | disease control grading, VENTURIA INAEQUALIS (APPLE) [3] | disease control grading, ERYSIPHE GRAMINIS (BARLEY) [4]
C[C@@H]1CN(C[C@@H]2C[C@H]2c2ccc(C(C)(C)C)cc2)C[C@H](C)O1 (relative stereo) [Compound 4, 4-[2-(p-t-butylphenyl)-trans-cyclopropylmethyl]-2,6-cis-dimethylmorpholine] | 0 (0 = 60-100% of disease on untreated plants) | 3 (3 = trace - 5% of disease on untreated plants) | 3 (3 = trace - 5% of disease on untreated plants) | 4 (4 = no disease)
C[C@@H]1CN(C[C@@H]2C[C@@]2(C)c2ccc(C(C)(C)C)cc2)C[C@H](C)O1 (relative stereo) [Compound 15] |  | 3 (3 = trace - 5% of disease on untreated plants) | 3 (3 = trace - 5% of disease on untreated plants) | 4 (4 = no disease)
CC(C)(C)c1ccc(C2CC2CC2CCNCC2)cc1 (stereo not drawn) [Compound 1, 4-[2-(p-t-butylphenyl)-cyclopropylmethyl]-piperidine] | 1 (1 = 26-59% of disease on untreated plants) | 4 (4 = no disease) | 0 (0 = 60-100% of disease on untreated plants) | 4 (4 = no disease)
CC(C)(C)c1ccc(C2C(CN3CCOCC3)C2(C)C)cc1 (stereo not drawn) [Compound 8, 4-[2-(p-t-butylphenyl)-3,3-dimethylcyclopropylmethyl]-morpholine] | 3 (3 = trace - 5% of disease on untreated plants) | 0 (0 = 60-100% of disease on untreated plants) | 3 (3 = trace - 5% of disease on untreated plants) | 4 (4 = no disease)
